Values belong to the compound of their own block, whether it stands above or below them. Calls of active or inactive are those of the source.
Assays:
Phospholipase D2 = Phospholipase D2 (Homo sapiens, UniProt O14939); assay: PLD2 purified enzyme concentration response. [Related pubchem assays (depositor defined):AID588854]; format: functional
Phospholipase D1 = molecular target: T1, Phospholipase D1 (Homo sapiens, UniProt Q13393); assay: PLD1 purified enzyme concentration response. [Related pubchem assays (depositor defined):AID588854]; format: functional
T1 sequence (Q13393 whole entry): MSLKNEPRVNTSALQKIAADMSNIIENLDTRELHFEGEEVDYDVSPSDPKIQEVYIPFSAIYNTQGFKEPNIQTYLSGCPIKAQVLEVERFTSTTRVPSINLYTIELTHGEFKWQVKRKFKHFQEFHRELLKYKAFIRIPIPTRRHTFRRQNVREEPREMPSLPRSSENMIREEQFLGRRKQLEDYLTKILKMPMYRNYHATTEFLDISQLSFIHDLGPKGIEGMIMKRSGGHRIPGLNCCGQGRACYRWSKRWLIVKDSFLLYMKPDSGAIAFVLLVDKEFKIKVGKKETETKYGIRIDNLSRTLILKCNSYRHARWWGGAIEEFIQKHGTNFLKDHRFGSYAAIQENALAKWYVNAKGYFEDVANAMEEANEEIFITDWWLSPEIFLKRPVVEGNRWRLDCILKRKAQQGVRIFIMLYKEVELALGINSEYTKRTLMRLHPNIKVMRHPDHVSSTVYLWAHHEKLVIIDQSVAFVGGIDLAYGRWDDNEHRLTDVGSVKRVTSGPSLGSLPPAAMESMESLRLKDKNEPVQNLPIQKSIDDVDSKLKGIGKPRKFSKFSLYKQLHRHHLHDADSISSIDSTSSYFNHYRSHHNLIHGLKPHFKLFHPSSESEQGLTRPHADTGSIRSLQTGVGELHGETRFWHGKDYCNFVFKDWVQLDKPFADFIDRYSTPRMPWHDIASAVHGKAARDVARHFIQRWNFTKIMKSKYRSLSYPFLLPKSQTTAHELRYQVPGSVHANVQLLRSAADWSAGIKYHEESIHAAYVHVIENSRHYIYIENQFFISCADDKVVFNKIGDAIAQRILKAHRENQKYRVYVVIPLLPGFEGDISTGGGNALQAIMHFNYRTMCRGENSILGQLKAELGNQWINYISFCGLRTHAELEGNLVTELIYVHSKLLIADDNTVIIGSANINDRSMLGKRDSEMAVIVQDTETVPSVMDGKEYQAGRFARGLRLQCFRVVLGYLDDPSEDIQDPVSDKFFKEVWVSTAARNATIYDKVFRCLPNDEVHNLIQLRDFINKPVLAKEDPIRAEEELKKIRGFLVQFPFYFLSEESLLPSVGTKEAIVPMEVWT

[1] = molecular target: Nuclear receptor subfamily 0 group B member 1 (Homo sapiens, UniProt P51843); assay: Luminescence-based cell-based high throughput dose response assay for inhibitors of the orphan nuclear receptor subfamily 0, group B, member 1 (DAX1; NR0B1). [Related pubchem assays (depositor defined):AID504766, AID504790]; format: functional
Chain of Nuclear receptor subfamily 0 group B member 1 (P51843 whole entry): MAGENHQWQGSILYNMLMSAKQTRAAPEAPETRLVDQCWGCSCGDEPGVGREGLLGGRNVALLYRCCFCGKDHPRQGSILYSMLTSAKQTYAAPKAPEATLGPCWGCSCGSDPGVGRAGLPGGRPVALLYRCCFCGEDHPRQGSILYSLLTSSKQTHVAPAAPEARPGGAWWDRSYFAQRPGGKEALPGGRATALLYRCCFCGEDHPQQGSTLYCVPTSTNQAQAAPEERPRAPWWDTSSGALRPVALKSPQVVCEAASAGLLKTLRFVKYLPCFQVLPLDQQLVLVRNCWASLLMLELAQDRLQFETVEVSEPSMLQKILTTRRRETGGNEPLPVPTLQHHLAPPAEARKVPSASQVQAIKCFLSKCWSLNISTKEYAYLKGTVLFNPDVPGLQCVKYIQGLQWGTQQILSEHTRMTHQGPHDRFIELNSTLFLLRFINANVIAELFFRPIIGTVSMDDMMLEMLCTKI

HEK293 [2] = assay: cells; format: functional, cell-based; details: Homo sapiens
[3] = cytotoxicity in MIN6 insulinoma cells, dose response, cytotoxicity control, cell-based, mouse insulinoma (AID 2122); format: functional;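 also: confirmatory high-throughput counterscreen run to flag cytotoxic compounds; mouse MIN-6 beta cells carrying an insulin promoter eGFP reporter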
[4] = insulin promoter down-regulators in MIN6 cells, imaging, high-content screening, mouse beta cells (AID 1628); format: functional
[5] = molecular target: T2, Mannose-6-phosphate isomerase (Homo sapiens, UniProt P34949); assay: PMI enzyme inhibitors, confirmation, biochemical, fluorescence intensity (AID 1535)
T2 sequence (P34949 whole entry): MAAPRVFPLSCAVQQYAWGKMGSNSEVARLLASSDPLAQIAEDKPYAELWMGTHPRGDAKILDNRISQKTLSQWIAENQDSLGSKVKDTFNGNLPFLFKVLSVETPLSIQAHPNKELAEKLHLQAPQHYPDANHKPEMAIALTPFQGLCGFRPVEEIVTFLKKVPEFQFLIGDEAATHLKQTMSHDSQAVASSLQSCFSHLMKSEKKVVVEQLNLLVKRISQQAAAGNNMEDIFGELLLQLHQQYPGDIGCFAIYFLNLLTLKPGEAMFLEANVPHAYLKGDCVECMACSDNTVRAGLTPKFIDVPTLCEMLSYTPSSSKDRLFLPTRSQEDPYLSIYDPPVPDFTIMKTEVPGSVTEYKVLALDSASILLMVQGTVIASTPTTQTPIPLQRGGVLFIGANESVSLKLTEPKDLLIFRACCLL

Escherichia coli = assay: microbe, parasite or virus in culture
BJ [6] = assay: cytotoxicity toward BJ-TERT fibroblasts, dose response, cell-based, RAS-independent, luminescence (AID 1933); format: functional; details: Homo sapiens
BJ [7] = assay: cytotoxicity toward BJ-TERT-LT-ST fibroblasts, dose response, cell-based, RAS-independent, luminescence (AID 1935); format: functional; details: Homo sapiens;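 also: BJ fibroblasts immortalized with TERT plus LT and ST oncogenes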
BJ [8] = assay: cells; format: functional, cell-based; details: Homo sapiens
[9] = cytotoxicity toward DRD oncogenic fibroblasts, dose response, cell-based, non-viral oncogenic, luminescence (AID 1934); format: functional; details: Homo sapiens
[10] = Luminescence Cell-Based Dose Retest to Confirm Inhibitors of Cancer Stem Cells. [Related pubchem assays (depositor defined):AID2717, AID2721]; format: functional; details: Homo sapiens
[11] = molecular target: FAD-linked sulfhydryl oxidase ALR (Homo sapiens, UniProt P55789); assay: inhibitors of human ALR sulfhydryl oxidase, dose response, biochemical, H2O2 detection, luminescence, cherry-pick (AID 493248)
Chain of FAD-linked sulfhydryl oxidase ALR (P55789 whole entry): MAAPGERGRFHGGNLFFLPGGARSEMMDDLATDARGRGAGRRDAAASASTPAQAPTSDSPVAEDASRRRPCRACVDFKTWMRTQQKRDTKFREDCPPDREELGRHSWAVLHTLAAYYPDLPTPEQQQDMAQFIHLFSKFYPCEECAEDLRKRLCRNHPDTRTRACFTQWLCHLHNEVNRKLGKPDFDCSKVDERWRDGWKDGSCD

[12] = molecular target: Dual specificity tyrosine-phosphorylation-regulated kinase 1A (Rattus norvegicus, UniProt Q63470); format: biochemical, Homo sapiens
HEK293 [13] = assay: inhibitors of LMP1-driven NF-kB reporter, dose response, cell-based, HEK293, luciferase, cherry-pick (AID 588343); format: functional; details: Homo sapiens

Chain of Phospholipase D2 (O14939 whole entry): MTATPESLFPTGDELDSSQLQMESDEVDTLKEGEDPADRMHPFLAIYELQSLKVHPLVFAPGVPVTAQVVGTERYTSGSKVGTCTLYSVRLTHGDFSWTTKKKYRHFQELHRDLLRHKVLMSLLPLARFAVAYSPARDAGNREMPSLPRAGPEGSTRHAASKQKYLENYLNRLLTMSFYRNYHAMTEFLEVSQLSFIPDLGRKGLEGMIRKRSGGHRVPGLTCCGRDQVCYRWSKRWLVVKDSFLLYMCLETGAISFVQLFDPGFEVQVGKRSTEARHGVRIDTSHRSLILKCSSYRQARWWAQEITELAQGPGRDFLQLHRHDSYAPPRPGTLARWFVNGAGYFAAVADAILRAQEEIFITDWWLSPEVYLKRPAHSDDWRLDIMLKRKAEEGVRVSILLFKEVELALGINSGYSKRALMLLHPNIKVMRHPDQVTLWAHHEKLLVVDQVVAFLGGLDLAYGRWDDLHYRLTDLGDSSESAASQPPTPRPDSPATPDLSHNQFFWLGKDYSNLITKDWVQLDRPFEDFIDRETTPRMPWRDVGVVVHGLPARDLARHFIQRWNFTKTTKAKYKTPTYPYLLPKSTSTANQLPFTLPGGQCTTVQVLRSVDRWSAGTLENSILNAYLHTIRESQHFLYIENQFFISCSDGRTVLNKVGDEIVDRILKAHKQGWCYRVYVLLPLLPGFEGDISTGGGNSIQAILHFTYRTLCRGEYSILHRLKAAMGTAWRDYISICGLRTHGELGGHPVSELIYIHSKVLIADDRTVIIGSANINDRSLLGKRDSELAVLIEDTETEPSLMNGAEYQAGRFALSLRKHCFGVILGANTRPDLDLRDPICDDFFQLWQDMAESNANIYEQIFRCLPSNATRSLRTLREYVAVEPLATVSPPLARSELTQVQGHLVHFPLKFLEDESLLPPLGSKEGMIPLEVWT

SMILES: O=C(NCCN1CCC2(CC1)C(=O)NCN2c1ccccc1)c1cc2ccccc2s1
IC50 (Phospholipase D2): 0.092 µM (active) | IC50 (Phospholipase D1): 4 µM (active)

SMILES: O=C(NCCN1CCC2(CC1)C(=O)NCN2c1ccc(F)cc1)c1cnc2ccccc2c1
IC50 (Phospholipase D2): 0.14 µM (active) | IC50 (Phospholipase D1): 20 µM (active)

SMILES: Cc1ccc2nc(NC(=O)c3ccc(Cl)s3)sc2c1
IC50 [1]: > 67.5 µM (inactive) | IC50 (HEK293 [2]): > 67.5 µM (inactive)

SMILES: Cc1c(Cl)cccc1NC(=O)CCC(=O)N/N=C/c1ccc[nH]1
IC50 [3]: 2.36 µM (active) | IC50 [4]: 2.31 µM (active)

IC50 [5]: > 100 µM (inactive)
SMILES: Clc1nss/c1=N\c1ncccn1

SMILES: COc1cccc(C(=O)Nc2cc([N+](=O)[O-])ccc2N2CCN(C)CC2)c1
AC50 (Escherichia coli): 25.5 µM (active)

SMILES: O=C(CCC1CCCC1)Nc1ccc(C(=O)NCc2cccnc2)cc1
IC50 [3]: > 16 µM (inactive) | EC50 (BJ [6]): > 150 µM (not active) | IC50 [4]: 0.331 µM (active) | EC50 (BJ [7]): 1.53 µM (inconclusive) | EC50 (BJ [8]): 0.672 µM (inconclusive) | EC50 [9]: > 150 µM (not active) | AC50 [10]: 0.882 µM (active)

SMILES: CC(Sc1nnc(-c2ccccc2F)n1C1CC1)C(=O)NCc1ccco1 (stereo not drawn)
AC50 (Escherichia coli): 24.4 µM (active)

SMILES: COc1ccc(/C=N/Nc2nc3ccccc3[nH]2)c(OC)c1OC
AC50 [11]: 0.278 µM (active) | IC50 [1]: > 67.5 µM (inactive) | IC50 (HEK293 [2]): > 67.5 µM (inactive)

SMILES: CC1=C(C(=O)OCc2ccc3c(c2)OCO3)C(c2ccccc2)NC(=O)N1 (stereo not drawn)
AC50 [12]: 0.695 µM (active) | AC50 (HEK293 [13]): 6.3 µM (active)
